Assays:
TGF-β protein [1] = experiment: TGF-β protein expression in transfected NHLF (pcDNA3.1 empty vector or pcDNA3.1-SOX2), western blotting (2-3); format: cell-based, human; conditions: TGF-β1 5 ng/ml 12 h
Protocol: The pcDNA3.1 empty vector and the pcDNA3.1-SOX2 plasmid (i.e., pcDNA3.1 vector containing SOX2 gene) were respectively transfected into Normal Human lung fibroblasts (NHLF) by the Fugene HD cell transfection reagent. The cells were screened to obtain NHLFs containing the pcDNA3.1 empty vector or the pcDNA3.1-SOX2 plasmid.
NHLFs containing the pcDNA3.1 empty vector were then seeded into 6 cm culture dishes at a density of 2×10^5 cells/dish, comprising a control group and three experimental groups (4 dishes in total). The cells were cultured until the next day, and then the mediums were removed. Each group was respectively treated under the following conditions to conduct follow-up experiments: • (1) Control group I: cells were cultured in a FGM-2 medium containing 1% serum for 36 hours; • (2) Group A: cells were cultured in a FGM-2 medium containing 1% serum and TGF-β1 (5 ng/ml) for 36 hours; • (3) Group B: cells were firstly cultured in a FGM-2 medium containing 1% serum and TGF-β1 (5 ng/ml) for 12 hours, and then compound (1) was added into the medium to provide a final concentration of 15 μg/ml; thereafter, the cells were cultured for another 24 hours; and • (4) Group C: cells were firstly cultured in a FGM-2 medium containing 1% serum and TGF-β1 (5 ng/ml) for 12 hours, and then compound (1) was added into the medium to provide a final concentration of 30 μg/ml; thereafter, the cells were cultured for another 24 hours.
In another aspect, NHLFs containing the pcDNA3.1-SOX2 plasmid were seeded into the 6 cm culture dishes at a density of 2×10^5 cells/dish, comprising a control group and three experimental groups (4 dishes in total). The cells were cultured until the next day, and then the mediums were removed. Each group was respectively treated under the following conditions to conduct follow-up experiments: • (1) Control group II: cells were cultured in a FGM-2 medium containing 1% serum for 36 hours; • (2) Group D: cells were cultured in a FGM-2 medium containing 1% serum and TGF-β1 (5 ng/ml) for 36 hours; • (3) Group E: cells were firstly cultured in a FGM-2 medium containing 1% serum and TGF-β1 (5 ng/ml) for 12 hours, and then the compound (1) was added into the medium to provide a final concentration of 15 μg/ml; thereafter, the cells were cultured for another 24 hours; and • (4) Group F: cells were firstly cultured in a FGM-2 medium containing 1% serum and TGF-β1 (5 ng/ml) for 12 hours, and then the compound (1) was added into the medium to provide a final concentration of 30 μg/ml; thereafter, the cells were cultured for another 24 hours.
Thereafter, the proteins in the cells of each group were extracted, and the expressions of Sox2 protein, TGF-β protein and type I collagen in the NHLF cells of each group were measured with western blotting. […]

TGF-β = TGF-β mRNA expression in NHLF, Q-PCR (3-2); format: cell-based, human; conditions: 24 hours
Protocol: Normal Human lung fibroblasts (NHLF) were seeded into 6-well plate at a density of 10^5 cells/well, comprising a control group and five experimental groups (6 wells in total). The cells were cultured until the next day, and then the mediums were removed. Each group was respectively treated under the following conditions to conduct follow-up experiments: • (1) Control group: cells were cultured in a FGM-2 medium containing 1% serum for 24 hours; • (2) Group α: cells were cultured in a FGM-2 medium containing 1% serum and compound (1) (5 μg/ml) for 24 hours; • (3) Group β: cells were cultured in a FGM-2 medium containing 1% serum and compound (1) (10 μg/ml) for 24 hours; • (4) Group γ: cells were cultured in a F-12K medium containing 1% serum and H2O2 (0.1 mM) for 24 hours; • (5) Group δ: cells were cultured in a F-12K medium containing 1% serum, H2O2 (0.1 mM) and compound (1) (5 μg/ml) for 24 hours; and • (6) Group ε: cells were cultured in a F-12K medium containing 1% serum, H2O2 (0.1 mM) and compound (1) (10 μg/ml) for 24 hours.
Thereafter, the total RNA of cells taken from each group were extracted, and then reverse transcription was conducted on the total RNA by using a QuantiTect Reverse Transcription Kit to obtain cDNA therefrom. A Q-PCR was then conducted on the cDNA to analyze the mRNA expression levels of genes such as α-SMA and TGF-β, wherein GAPDH gene served as an internal control. The results of the control group served as the basis for calculating the relative expression levels of the other groups.

TGF-β protein [2] = experiment: TGF-β protein in mouse pulmonary tissue, western blotting; format: in vivo, mice; conditions: compared to oil group
Protocol: 24 C57B/L6 mice (age: four weeks) were separated into four groups (6 mice in each group). […]
The samples of mice pulmonary tissue provided by Example 7 and preserved at −20° C. were removed from storage, and then ground in liquid nitrogen. […] The expressions of TGF-β protein, smad3 protein and surfactant C in the samples of each group were measured with western blotting, wherein the actin served as an internal control.

**Q.** Which results are given for `CCCC=C1OC(=O)c2ccccc21` [compound (1)]?
**A.** Relative expression level (fold) TGF-β protein (TGF-β protein [1]; Group B: NHLF with pcDNA3.1 empty vector, then compound (1) 15 μg/ml 24 h, control group I = 1, TGF-β1-only group A = 0.84): 0.89 fold; Relative expression level (fold) TGF-β protein (TGF-β protein [1]; Group C: NHLF with pcDNA3.1 empty vector, then compound (1) 30 μg/ml 24 h, control group I = 1, TGF-β1-only group A = 0.84): 0.69 fold; Relative expression level (fold) TGF-β protein (TGF-β protein [1]; Group E: NHLF with pcDNA3.1-SOX2 plasmid, then compound (1) 15 μg/ml 24 h, control group II = 1, TGF-β1-only group D = 0.86): 0.83 fold; Relative expression level (fold) TGF-β protein (TGF-β protein [1]; Group F: NHLF with pcDNA3.1-SOX2 plasmid, then compound (1) 30 μg/ml 24 h, control group II = 1, TGF-β1-only group D = 0.86): 0.71 fold; Relative expression level (fold) TGF-β (TGF-β; Group α: mRNA, FGM-2 medium 1% serum + compound (1) 5 μg/ml, control group = 1): 0.61 fold; Relative expression level (fold) TGF-β (TGF-β; Group β: mRNA, FGM-2 medium 1% serum + compound (1) 10 μg/ml, control group = 1): 0.12 fold; Relative expression level (fold) TGF-β (TGF-β; Group δ: mRNA, F-12K medium 1% serum + H2O2 0.1 mM + compound (1) 5 μg/ml, control group = 1, H2O2-only group γ = 0.34): 0.42 fold; Relative expression level (fold) TGF-β (TGF-β; Group ε: mRNA, F-12K medium 1% serum + H2O2 0.1 mM + compound (1) 10 μg/ml, control group = 1, H2O2-only group γ = 0.34): 0.04 fold; expression level of TGF-β protein in pulmonary tissue (TGF-β protein [2]; High-dose group, compound (1) 50 mg/kg orally daily 30 days): significantly lower; expression level of TGF-β protein in pulmonary tissue (TGF-β protein [2]; Low-dose group, compound (1) 10 mg/kg orally daily 30 days): significantly lower

From US20170333391A1, “METHOD FOR DELAYING THE ONSET OF PULMONARY FIBROSIS OR TREATING PULMONARY FIBROSIS” (EVERFRONT BIOTECH INC., priority 2016, published 2017)
